Read-outs that look alike come from different tables or passages of the source. Each block holds one molecule with its values, some of them ahead of it. Bridge positions count the residues as written; N and C are the ends. Square brackets hold non-standard residues; d marks the D form. Peptide text beside a SMILES is read from it. R8 = C=CCCCCCC[C@@](C)(N)C(=O)O; S5 = C=CCCC[C@](C)(N)C(=O)O
Experiments:
Mdm4 [1] = target: T1, Mdm4 (Homo sapiens, UniProt O15151); assay: Lysate CETSA, thermal stabilisation of Mdm4 in AML2 cell lysates; format: binding; design: endogenous in cells; host or cells: OCI/AML-2 (AML2) cells, pre-treated with MG132
T1 sequence (O15151 1-490): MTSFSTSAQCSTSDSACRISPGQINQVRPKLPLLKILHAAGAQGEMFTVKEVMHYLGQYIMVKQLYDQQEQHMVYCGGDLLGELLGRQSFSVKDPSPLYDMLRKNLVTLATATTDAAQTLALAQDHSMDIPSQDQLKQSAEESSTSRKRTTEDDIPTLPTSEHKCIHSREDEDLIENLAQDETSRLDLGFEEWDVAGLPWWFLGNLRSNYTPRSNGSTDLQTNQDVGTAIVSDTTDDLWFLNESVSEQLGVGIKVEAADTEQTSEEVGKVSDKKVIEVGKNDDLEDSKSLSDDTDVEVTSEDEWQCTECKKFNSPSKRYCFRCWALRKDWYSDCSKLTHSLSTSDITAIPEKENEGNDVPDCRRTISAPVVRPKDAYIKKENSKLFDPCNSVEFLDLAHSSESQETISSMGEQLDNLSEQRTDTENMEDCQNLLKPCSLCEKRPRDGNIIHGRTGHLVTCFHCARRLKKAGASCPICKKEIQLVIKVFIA

Mdm2 [2] = target: T2, Mdm2 (Homo sapiens, UniProt Q00987); assay: Whole cell CETSA, Mdm2
T2 sequence (Q00987 whole entry): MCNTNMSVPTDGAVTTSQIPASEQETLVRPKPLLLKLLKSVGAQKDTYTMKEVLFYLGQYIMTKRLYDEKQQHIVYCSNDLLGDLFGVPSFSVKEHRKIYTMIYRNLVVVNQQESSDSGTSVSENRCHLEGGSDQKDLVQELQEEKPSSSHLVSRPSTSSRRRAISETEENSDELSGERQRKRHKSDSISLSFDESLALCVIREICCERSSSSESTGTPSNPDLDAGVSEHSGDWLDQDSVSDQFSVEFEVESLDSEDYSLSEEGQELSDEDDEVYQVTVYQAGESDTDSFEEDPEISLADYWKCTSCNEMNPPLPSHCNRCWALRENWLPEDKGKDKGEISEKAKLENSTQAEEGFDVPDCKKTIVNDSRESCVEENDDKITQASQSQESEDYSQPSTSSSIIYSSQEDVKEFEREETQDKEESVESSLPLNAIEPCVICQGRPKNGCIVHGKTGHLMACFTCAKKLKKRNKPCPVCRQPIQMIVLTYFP

Mdm2 [3] = target: T2, Mdm2; assay: Lysate CETSA, thermal stabilisation of Mdm2 in AML2 cell lysates; format: binding; design: endogenous in cells; host or cells: OCI/AML-2 (AML2) cells, pre-treated with MG132; conditions: Fig. 1a, 10 μM in 5 mg/ml AML2 cell lysates, three independent replicates
Mdm2 [4] = target: T2, Mdm2; design: method as in 3 sources, ref 10 = [10]; PMID 23214419; doi:10.1021/cb3005148; Brown C. J. et al. Stapled Peptides with Improved Potency and Specificity That Activate p53 . ACS Chem. Biol . 8 , 506 – 512 ( 2013 ). 23214419 10.1021/cb3005148 ||| ref 11 = [11]; PMID 23946421; doi:10.1073/pnas; Chang Y. S. et al. Stapled α−helical peptide drug development: A potent dual inhibitor of MDM2 and MDMX for p53-dependent cancer therapy . Proc. Natl. Acad. Sci . 201303002 (2013). 10.1073/pnas .13030 ||| ref 6 = [6]; PMID 14704432; doi:10.1126/science.1092472; Vassilev L. T. et al. In vivo activation of the p53 pathway by small-molecule antagonists of MDM2 . Science 303 , 844 – 848 ( 2004 ). 14704432 10.1126/science.1092472; conditions: competition assay, cited from earlier work
Mdm4 [5] = target: T1, Mdm4; design: method as in 3 sources, ref 10 = [10]; PMID 23214419; doi:10.1021/cb3005148; Brown C. J. et al. Stapled Peptides with Improved Potency and Specificity That Activate p53 . ACS Chem. Biol . 8 , 506 – 512 ( 2013 ). 23214419 10.1021/cb3005148 ||| ref 11 = [11]; PMID 23946421; doi:10.1073/pnas; Chang Y. S. et al. Stapled α−helical peptide drug development: A potent dual inhibitor of MDM2 and MDMX for p53-dependent cancer therapy . Proc. Natl. Acad. Sci . 201303002 (2013). 10.1073/pnas .13030 ||| ref 6 = [6]; PMID 14704432; doi:10.1126/science.1092472; Vassilev L. T. et al. In vivo activation of the p53 pathway by small-molecule antagonists of MDM2 . Science 303 , 844 – 848 ( 2004 ). 14704432 10.1126/science.1092472; conditions: competition assay, cited from earlier work
[6] = target: Mdm2 (human (endogenous in OCI/AML-2)) (UniProt Q00987); assay: cellular thermal shift assay (CETSA); lysate CETSA: peptides at 10 uM added to 5 mg/ml AML2 cell lysate (kinase buffer: 25 mM Tris pH 7.4, 10 mM MgCl2, 2 mM DTT), 15 min at room temperature, heated 2 min, soluble protein by Western blot; dTm50 against the control
Sequence of Mdm2 (human (endogenous in OCI/AML-2)) (Q00987 whole entry): as above

[7] = test system: p53 responsive β-galactosidase reporter in T22 cells; assay: T22 p53 β-galactosidase based reporter assay; format: cell-based; conditions: 18 h treatment, text points to Fig. 2a in Brown et al., 2013
Mdm4 [8] = target: T1, Mdm4; assay: Whole cell CETSA, Mdm4; conditions: whole cells 25 μM
[9] = target: Mdm4 (human (endogenous in OCI/AML-2)) (UniProt O15151); assay: cellular thermal shift assay (CETSA); lysate CETSA: peptides at 10 uM added to 5 mg/ml AML2 cell lysate (kinase buffer: 25 mM Tris pH 7.4, 10 mM MgCl2, 2 mM DTT), 15 min at room temperature, heated 2 min, soluble protein by Western blot; dTm50 against the control
[10] = target: Mdm2 (human (endogenous in OCI/AML-2)) (UniProt Q00987); assay: cellular thermal shift assay (CETSA); whole cell CETSA: OCI/AML-2 cells pre-treated with 10 uM MG132 for 1 h, then 25 uM Staplin-2 for 4 h, intact cells heated 2 min, lysed by freeze/thaw, soluble protein by Western blot; compared with the lysate CETSA
[11] = target: Mdm4 (human (endogenous in OCI/AML-2)) (UniProt O15151); assay: as above
[12] = no reference number printed in the cell, footnote: IC50s are obtained from the references indicated

Mdm4 ΔTm50 (±95% CI) (Mdm4 [1]; Fig. 2c, labelled and unlabelled stapled peptides, AML2 cell extracts, 15 min): 1.11 (1.65) °C
Molecule: CC(C)C[C@H](NC(=O)c1ccc2c(c1)C(=O)OC21c2ccc(O)cc2Oc2cc(O)ccc21)C(=O)N[C@H](C(=O)N[C@@H](Cc1ccccc1)C(=O)N[C@]1(C)CCCCCCC=CCCC[C@@](C)(C(=O)N[C@@H](CO)C(=O)N[C@@H](C)C(=O)N[C@@H](C)C(N)=O)NC(=O)[C@H](CC2CCC2)NC(=O)[C@H](CCC(N)=O)NC(=O)[C@H](C)NC(=O)[C@H](Cc2c[nH]c3ccccc23)NC(=O)[C@H](Cc2ccc(O)cc2)NC(=O)[C@H](CCC(=O)O)NC1=O)[C@@H](C)O [ATSP-7041 ^FAM]

Molecule: COc1ccc(C2=N[C@@H](c3ccc(Cl)cc3)[C@@H](c3ccc(Cl)cc3)N2C(=O)N2CCNC(=O)C2)c(OC(C)C)c1 [Nutlin-3, nutlin-3, reference compound]
Mdm2 ΔΔTm50 (±95% CI), lysate versus whole cell (Mdm2 [2]; Fig. 3a, 10 μM): 0.24 ± 1.42 °C | Mdm2: Tm50 (mean +95% CI −95% CI) (Mdm2 [3]; 15 min room temperature, heated 2 min, Western blot): 55.9 °C

Molecule: CC(=O)N[C@H](C(=O)N[C@@H](CO)C(=O)N[C@@H](C)C(=O)N[C@]1(C)CCCCCCC=CCCC[C@@](C)(C(N)=O)NC(=O)[C@H](C)NC(=O)[C@H](CC(C)C)NC(=O)[C@H](C)NC(=O)[C@H](C)NC(=O)[C@H](Cc2ccc(O)cc2)NC(=O)[C@H](CCC(=O)O)NC1=O)[C@@H](C)O [Staplin-Control, reference compound] (Ac-TSA[R8]EYAALA[S5]-NH2; staple 4-11)
IC50 (Mdm2 [4]; [12]): > 10000 nM | IC50 (Mdm4 [5]; [12]): > 10000 nM

ΔTm at 10 µM (Mdm2 [3]; human, 0.25 h, versus control, read-out: Mdm2: ΔTm50 (±95% CI)): 6.76 °C | ΔTm at 10 µM (Mdm4 [1]; human, 0.25 h, Fig. 1b, 10 μM in 5 mg/ml AML2 cell lysates, versus control, three independent replicates, read-out: Mdm4: ΔTm50 (±95% CI)): 5.48 °C
Molecule: CC(=O)N[C@H](C(=O)N[C@@H](CO)C(=O)N[C@@H](Cc1ccccc1)C(=O)N[C@]1(C)CCCCCCC=CCCC[C@@](C)(C(N)=O)NC(=O)[C@H](CC(C)C)NC(=O)[C@H](CC(C)C)NC(=O)[C@H](C)NC(=O)[C@H](Cc2c[nH]c3ccccc23)NC(=O)[C@H](Cc2ccc(O)cc2)NC(=O)[C@H](CCC(=O)O)NC1=O)[C@@H](C)O [Staplin]
IC50 (Mdm4 [5]): 660 ± 60 nM

thermal shift (ΔTm50) [6]: 1.52 °C
Molecule: ATSP-7041 (peptide)

Molecule: Ac-^1LTFXrEYWAQ(Cba)XSSAA^14-NH2 (sidechain bridge or staple) [ATSP-7041, reference compound]
p53 activation measured by β-galactosidase activity with increasing concentrations [7]: correspondingly increasing p53 activity and plateaued off at maxima | IC50 (Mdm4 [5]): 2310 nM

ΔΔTm50 (±95% CI) Mdm2, lysate versus whole cell (Mdm2 [2]; Fig. 3b, whole cells 25 μM): 4.01 °C | mean thermal shift from the whole cell CETSA as % of the mean thermal shift for the cell lysate CETSA, Mdm2 (Mdm2 [2]; whole cells 25 μM): 40% | ΔΔTm50 (±95% CI) Mdm4, lysate versus whole cell (Mdm4 [8]; Fig. 3b): 3.58 °C | mean thermal shift from the whole cell CETSA as % of the mean thermal shift for the cell lysate CETSA, Mdm4 (Mdm4 [8]): 33% | Mdm2: ΔTm50 (±95% CI) (Mdm2 [3]; versus control): 6.58 °C | Mdm4: ΔTm50 (±95% CI) (Mdm4 [1]; Fig. 1b, 10 μM in 5 mg/ml AML2 cell lysates, versus control, three independent replicates): 5.44 °C
Molecule: Ac-^1TSFXrEYW(6Cl)WALLXs^11-NH2 (sidechain bridge or staple) [Staplin-2]
p53 activation measured by β-galactosidase activity with increasing concentrations [7]: correspondingly increasing p53 activity and plateaued off at maxima | IC50 (Mdm2 [4]): 320 ± 20 nM | IC50 (Mdm4 [5]): 3490 ± 630 nM

decrease in thermal shift against unlabelled ATSP-7041 [9]: 0.4 °C
Molecule: FAM-labelled ATSP-7041 (peptide)

thermal shift less than that of unlabelled Staplin-2 [6]: 2.71 °C | thermal shift less than that of unlabelled Staplin-2 [9]: 2.99 °C
Molecule: FAM-labelled Staplin-2 (peptide)

ΔTm50 [6]: 6.76 °C | ΔTm50 [9]: 5.48 °C
Molecule: Staplin (peptide)

mean thermal shift in whole cell CETSA as percent of that in cell lysate CETSA [10]: 40% | ΔΔTm50 (whole cell CETSA against cell lysate CETSA) [10]: 4.01 °C | mean thermal shift in whole cell CETSA as percent of that in cell lysate CETSA [11]: 33% | ΔΔTm50 (whole cell CETSA against cell lysate CETSA) [11]: 3.58 °C | ΔTm50 [6]: 6.58 °C | ΔTm50 [9]: 5.44 °C
Molecule: Staplin-2 (peptide)

Reference: paper PMC4498326, “Assessing the Efficacy of Mdm2/Mdm4-Inhibiting Stapled Peptides Using Cellular Thermal Shift Assays” (Scientific Reports, 2015)
